Values quoted from earlier work as cited in article PMC8780741, “Integration of In Silico, In Vitro and In Situ Tools for the Preformulation and Characterization of a Novel Cardio-Neuroprotective Compound during the Early Stages of Drug Development” (Pharmaceutics, 2022).

Parameters: method as in PMID 15832504
Conditions: reference compound for the permeability cut-off; cited from earlier work

COCCc1ccc(OCC(O)CNC(C)C)cc1 (stereo not shown) [Metoprolol]
logP: 1.72
